Source: patent US20240415918A1, “Polypeptide and its use as a CCK receptor agonist/antagonist” (Centre for Regenerative Medicine & Health, Hong Kong …, priority 2021, published 2024)
*1 amine or outer side, *2 acyl side, *3 side chain or, on linkers, in order; H or OH if unused. Where a SMILES comes first, the peptide text is derived from it. [ ]: non-standard residue; d: D form. The star is where a group is joined. Trp(5-OH) = N[C@@H](Cc1c[nH]c2ccc(O)cc12)C(=O)O; dTrp(6-OH) = N[C@H](Cc1c[nH]c2cc(O)ccc12)C(=O)O; sY = N[C@@H](Cc1ccc(OS(=O)(=O)O)cc1)C(=O)O; NMeW = CN[C@@H](Cc1c[nH]c2ccccc12)C(=O)O; Phe(3-Br) = N[C@@H](Cc1cccc(Br)c1)C(=O)O; Fmoc = O=C(OCC1c2ccccc2-c2ccccc21)*; Palmitoyl = CCCCCCCCCCCCCCCC(=O)*; NMeNle = CCCC[C@H](NC)C(=O)O; Suc = O=C(CCC(=O)[*:2])[*:1]; Nle = CCCC[C@H](N)C(=O)O

Tests used:
[1] = molecular target: T1, CCK-B receptors (CHO-CCK) (Homo sapiens, UniProt P32239); test: Calcium flux (Fluo-8) agonist test on CHO-CCK model cells; type: cell-based; settings: CHO-CCK cells
T1 construct: expressed in transfected cells; host or cells: CHO (CHO-CCK model cells)
T1 sequence (P32239 1-447): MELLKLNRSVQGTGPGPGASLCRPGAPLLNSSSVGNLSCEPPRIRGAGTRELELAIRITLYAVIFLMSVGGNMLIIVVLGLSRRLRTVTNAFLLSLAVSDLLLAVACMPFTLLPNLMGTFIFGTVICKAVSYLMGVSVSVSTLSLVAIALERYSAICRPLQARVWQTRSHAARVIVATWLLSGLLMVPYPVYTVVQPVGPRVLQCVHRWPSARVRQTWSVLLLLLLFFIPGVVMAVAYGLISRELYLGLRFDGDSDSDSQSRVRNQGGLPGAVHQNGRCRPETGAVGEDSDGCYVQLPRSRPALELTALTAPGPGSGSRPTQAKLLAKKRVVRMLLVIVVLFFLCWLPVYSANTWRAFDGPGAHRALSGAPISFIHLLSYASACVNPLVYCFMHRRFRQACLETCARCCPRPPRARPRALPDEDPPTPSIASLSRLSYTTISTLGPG
Procedure, shortened: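 Agonist-mode Fluo-8 calcium flux read on CHO-CCK cells after dye loading 30 min at 37 °C plus 30 min at room temperature.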

[2] = molecular target: T1, CCK-B receptors (CHO-CCK); test: Calcium flux (Fluo-8) antagonist test on CHO-CCK model cells in presence of CCK8; type: cell-based
[3] = Fluo-8 calcium flux, bound in μM
[4] = in presence of 10 nM CCK8, bound in μM
[5] = Fluo-8 calcium flux, 100% control = 20 nM CCK8

Row | EC50 [1, 5] | EC50 ([2]; in presence of 10 nM CCK8) | SMILES | also measured
1 |  |  | CSCC[C@H](NC(=O)[C@H](Cc1c[nH]c2ccccc12)NC(C)=O)C(=O)N[C@@H](CC(=O)O)C(=O)N[C@@H](CCCNC(=N)N)C(N)=O [HT-195, Ac-Trp-Met-Asp-Arg-NH2] (Ac-WMDR-NH2) | EC50 ([1]; compound alone, bound in μM): > 10 µM; EC50 ([2]; compound together with 10 nM CCK8): 2.2 µM
2 |  |  | CSCC[C@H](NC(=O)[C@H](Cc1c[nH]c2ccccc12)NC(C)=O)C(=O)N[C@@H](CC(=O)O)C(=O)N[C@@H](CCC(=O)O)C(N)=O [HT-196, Ac-Trp-Met-Asp-Glu-NH2] | EC50 [1, 3]: > 10 µM; EC50 [2, 4]: > 10 µM
3 | 0.205 µM | 0.908 µM | CCCC[C@H](NC(=O)[C@H](Cc1c[nH]c2ccccc12)NC(=O)OCC1c2ccccc2-c2ccccc21)C(=O)N[C@@H](CC(=O)O)C(=O)N[C@@H](Cc1cccc(Br)c1)C(N)=O [HT-198, Fmoc-Trp-Nle-Asp-Phe(3-Br)-NH2] (Fmoc-W[Nle]D[Phe(3-Br)]-NH2) | 
4 | 0.616 µM | 1.77 µM | CCCC[C@@H](C(=O)N[C@@H](CC(=O)O)C(=O)N[C@@H](Cc1cccc(Br)c1)C(N)=O)N(C)C(=O)[C@H](Cc1c[nH]c2ccccc12)N(C)C(=O)OCC1c2ccccc2-c2ccccc21 [HT-200, Fmoc-(N-Me-Trp)-(N-Me-Nle)-Asp-Phe(3-Br)-NH2] (Fmoc-[NMeW][NMeNle]D[Phe(3-Br)]-NH2) | 
5 | 4.29 µM | 3.6 µM | CSCC[C@H](NC(=O)[C@H](Cc1c[nH]c2ccccc12)NC(C)=O)C(=O)N[C@@H](CC(=O)O)C(=O)N[C@@H](Cc1cccc(Br)c1)C(=O)N[C@@H](C)C(N)=O [HT-201, Ac-D-Trp-Met-Asp-Phe(3-Br)-Ala-NH2] | 
6 | 0.0051 µM | 0.192 µM | CCCC[C@H](NC(=O)[C@@H](Cc1c[nH]c2ccccc12)NC(=O)CNC(=O)CCC(=O)O)C(=O)N[C@@H](CC(=O)O)C(=O)N[C@@H](Cc1cccc(Br)c1)C(N)=O [HT-202, (Suc)-Gly-D-Trp-Nle-Asp-Phe(3-Br)-NH2] (Suc-G[dW][Nle]D[Phe(3-Br)]-NH2) | 
7 | 0.036 µM | 1.59 µM | CCCCCCCCCCCCCCCC(=O)NCC(=O)N[C@H](Cc1c[nH]c2ccccc12)C(=O)N[C@@H](CCCC)C(=O)N[C@@H](CC(=O)O)C(=O)N[C@@H](Cc1cccc(Br)c1)C(N)=O [HT-203, (Pal)-Gly-D-Trp-Nle-Asp-Phe(3-Br)-NH2] (Palmitoyl-G[dW][Nle]D[Phe(3-Br)]-NH2) | 
8 |  |  | CSCC[C@H](NC(=O)[C@H](Cc1ccc(O)cc1)NC(=O)[C@H](CC(=O)O)NC(C)=O)C(=O)NCC(N)=O [HT-206, Ac-Asp-Tyr-Met-Gly-NH2] (Ac-DYMG-NH2) | EC50 [1, 3]: > 10 µM; EC50 [2, 4]: > 10 µM
9 |  |  | CSCC[C@H](NC(=O)[C@H](Cc1ccc(O)cc1)NC(C)=O)C(=O)NCC(=O)N[C@@H](Cc1c[nH]c2ccccc12)C(N)=O [HT-207, Ac-Tyr-Met-Gly-Trp-NH2] (Ac-YMGW-NH2) | EC50 [1, 3]: > 10 µM; EC50 [2, 4]: > 10 µM
10 |  |  | CSCC[C@H](NC(=O)[C@H](Cc1ccc(OS(=O)(=O)O)cc1)NC(=O)[C@H](CC(=O)O)NC(C)=O)C(=O)NCC(N)=O [HT-208, Ac-Asp-Tyr(SO3H)-Met-Gly-NH2] (Ac-D[sY]MG-NH2) | EC50 [1, 3]: > 10 µM; EC50 [2, 4]: > 10 µM
11 |  | 2.15 µM | CSCC[C@H](NC(=O)[C@H](Cc1ccc(OS(=O)(=O)O)cc1)NC(C)=O)C(=O)NCC(=O)N[C@@H](Cc1c[nH]c2ccccc12)C(N)=O [HT-209, Ac-Tyr(SO3H)-Met-Gly-Trp-NH2] (Ac-[sY]MGW-NH2) | EC50 [1, 3]: > 10 µM
12 | 0.398 µM | 6.45 µM | CSCC[C@H](NC(=O)[C@H](Cc1c[nH]c2ccccc12)NC(=O)CNC(=O)[C@H](CCSC)NC(C)=O)C(N)=O [HT-210, Ac-Met-Gly-Trp-Met-NH2] (Ac-MGWM-NH2) | 
13 |  |  | CSCC[C@H](NC(=O)[C@H](Cc1c[nH]c2ccccc12)NC(=O)CNC(C)=O)C(=O)N[C@@H](CC(=O)O)C(N)=O [HT-211, Ac-Gly-Trp-Met-Asp-NH2] (Ac-GWMD-NH2) | EC50 [1, 3]: > 10 µM; EC50 [2, 4]: > 10 µM
14 |  |  | CCCC[C@H](NC(C)=O)C(=O)NCC(=O)N[C@@H](Cc1c[nH]c2ccccc12)C(=O)N[C@@H](CCSC)C(N)=O [HT-212, Ac-Nle-Gly-Trp-Met-NH2] (Ac-[Nle]GWM-NH2) | EC50 [1, 3]: > 10 µM; EC50 [2, 4]: > 10 µM
15 | 0.533 µM | 4.92 µM | CCCC[C@H](NC(=O)[C@H](Cc1c[nH]c2ccccc12)NC(=O)CNC(=O)[C@H](CCCC)NC(C)=O)C(N)=O [HT-213, Ac-Nle-Gly-Trp-Nle-NH2] (Ac-[Nle]GW[Nle]-NH2) | 
16 |  |  | CCCC[C@H](NC(=O)[C@H](Cc1c[nH]c2ccccc12)NC(=O)CNC(C)=O)C(=O)N[C@@H](CC(=O)O)C(N)=O [HT-214, Ac-Gly-Trp-Nle-Asp-NH2] (Ac-GW[Nle]D-NH2) | EC50 [1, 3]: > 10 µM; EC50 [2, 4]: > 10 µM
17 |  | 0.237 µM | CCCC[C@H](NC(=O)[C@H](Cc1c[nH]c2ccccc12)NC(=O)CNC(C)=O)C(=O)N[C@@H](CC(=O)O)C(=O)N[C@@H](Cc1cccc(Br)c1)C(N)=O [HT-215, Ac-Gly-Trp-Nle-Asp-Phe(3-Br)-NH2] (Ac-GW[Nle]D[Phe(3-Br)]-NH2) | EC50 ([1]; Fluo-8 calcium flux, bound printed in nm in the cell): < 0.0001 µM
18 | 0.588 µM | 1.44 µM | CSCC[C@H](NC(=O)[C@H](Cc1ccc(OS(=O)(=O)O)cc1)NC(=O)[C@H](CC(=O)O)NC(C)=O)C(=O)NCC(=O)N[C@@H](Cc1c[nH]c2ccccc12)C(N)=O [HT-216, Ac-Asp-Tyr(SO3H)-Met-Gly-Trp-NH2] (Ac-D[sY]MGW-NH2) | 
19 | 0.395 µM | 0.68 µM | CSCC[C@H](NC(=O)[C@@H](Cc1c[nH]c2ccccc12)NC(=O)CNC(=O)[C@H](Cc1ccc(O)cc1)NC(=O)[C@H](CC(N)=O)NC(=O)[C@H](CCCCN)NC(=O)[C@@H](NC(=O)[C@H](C)NC(=O)[C@H](CC(N)=O)NC(=O)[C@@H](NC(=O)[C@H](Cc1c[nH]cn1)NC(=O)CNC(=O)[C@H](CO)NC(=O)[C@H](CC(N)=O)NC(=O)[C@H](C)NC(=O)[C@H](Cc1ccc(O)cc1)NC(C)=O)C(C)C)C(C)C)C(=O)N[C@@H](CC(=O)O)C(=O)N[C@@H](Cc1cccc(Br)c1)C(N)=O [HT-218] (Ac-YANSGHVNAVKNYG[dW]MD[Phe(3-Br)]-NH2) | 
20 | 0.327 µM | 2.58 µM | CC[C@H](C)[C@H](NC(=O)[C@H](CCC(=O)O)NC(=O)[C@H](CC(N)=O)NC(=O)[C@@H](NC(=O)[C@H](CC(C)C)NC(=O)[C@H](CCC(=O)O)NC(=O)[C@H](CO)NC(=O)[C@H](CCC(=O)O)NC(C)=O)[C@@H](C)O)C(=O)N1CCC[C@H]1C(=O)N[C@@H](C)C(=O)N[C@@H](CCC(=O)O)C(=O)N[C@H](Cc1c[nH]c2ccccc12)C(=O)N[C@@H](CCSC)C(=O)N[C@@H](CC(=O)O)C(=O)N[C@@H](Cc1cccc(Br)c1)C(N)=O [HT-219, Ac-Glu-Ser-Glu-Leu-Thr-Asn-Glu-lle-Pro-Ala-Glu-D-Trp-Met-Asp-Phe(3-Br)-NH2] (Ac-ESELTNEIPAE[dW]MD[Phe(3-Br)]-NH2) | 
21 | 8.39 µM | 2.88 µM | CSCC[C@H](NC(=O)[C@@H](Cc1c[nH]c2ccccc12)NC(=O)[C@H](CCC(=O)O)NC(=O)[C@H](CC(C)C)NC(=O)CNC(=O)[C@H](Cc1c[nH]cn1)NC(=O)[C@H](CO)NC(=O)CNC(=O)[C@H](CCCCN)NC(=O)[C@H](CCCNC(=N)N)NC(=O)[C@H](CCCNC(=N)N)NC(=O)[C@H](Cc1c[nH]cn1)NC(=O)[C@H](CCCCN)NC(=O)[C@@H](NC(C)=O)[C@@H](C)O)C(=O)N[C@@H](CC(=O)O)C(=O)N[C@@H](Cc1cccc(Br)c1)C(N)=O [HT-220] (Ac-TKHRRKGSHGLE[dW]MD[Phe(3-Br)]-NH2) | 
22 | 0.225 µM | 1.88 µM | CSCC[C@H](NC(=O)[C@H](Cc1ccccc1)NC(C)=O)C(=O)N[C@@H](CC(=O)O)C(=O)N[C@@H](Cc1cccc(Br)c1)C(N)=O [HT-223, Ac-Phe-Met-Asp-Phe(3-Br)-NH2] (Ac-FMD[Phe(3-Br)]-NH2) | 
23 | 0.0254 µM | 0.0803 µM | CSCC[C@H](NC(=O)[C@H](Cc1cccc(Br)c1)NC(C)=O)C(=O)N[C@@H](CC(=O)O)C(=O)N[C@@H](Cc1cccc(Br)c1)C(N)=O [HT-224, Ac-Phe(3-Br)-Met-Asp-Phe(3-Br)-NH2] (Ac-[Phe(3-Br)]MD[Phe(3-Br)]-NH2) | 
24 | 0.0332 µM | 0.475 µM | CCCC[C@H](NC(=O)[C@H](Cc1c[nH]c2ccccc12)NC(C)=O)C(=O)N[C@@H](CC(=O)O)C(=O)N[C@@H](Cc1c[nH]c2ccccc12)C(N)=O [HT-225, Ac-D-Trp-Nle-Asp-Trp-NH2] | 
25 | 14.2 µM |  | CCCC[C@H](NC(=O)[C@@H](Cc1c[nH]c2ccccc12)NC(C)=O)C(=O)N[C@@H](CC(=O)O)C(=O)N[C@@H](Cc1c[nH]c2ccc(O)cc12)C(N)=O [HT-226, Ac-D-Trp-Nle-Asp-(5-HTP)-NH2] (Ac-[dW][Nle]D[Trp(5-OH)]-NH2) | EC50 [2, 4]: > 10 µM
26 | 0.022 µM | 3.4 µM | CCCC[C@H](NC(=O)[C@@H](Cc1c[nH]c2cc(O)ccc12)NC(C)=O)C(=O)N[C@@H](CC(=O)O)C(=O)N[C@@H](Cc1cccc(Br)c1)C(N)=O [HT-227, Ac-(5-HTP)-Nle-Asp-Phe(3-Br)-NH2] (Ac-[dTrp(6-OH)][Nle]D[Phe(3-Br)]-NH2) | 
27 | 0.262 µM | 3.07 µM | CCCC[C@H](NC(=O)[C@H](Cc1c[nH]c2ccccc12)NC(C)=O)C(=O)N[C@@H](CC(=O)O)C(=O)N[C@@H](Cc1cn(C)c2ccccc12)C(N)=O [HT-228, Ac-D-Trp-Nle-Asp-(1-Me-Trp)-NH2] | 
